Results as given in PMC12446476 (Nature Communications, 2025).
Where “and” joins values, the source holds several entries; their conditions need not be identical. Equal entries are not always repeated. Where two headings read alike, the source gives them in different places.

Key:
[1] = system: E. coli WP2 uvrA; experiment: Ames assay, E. coli strain; assay type: cell-based
Procedure: (§1) Ames assays were performed using four strains of Salmonella typhimurium (TA1535, TA1537, TA98 and TA100) and a single strain of E. coli (WRP2 uvrA) in the presence and absence of S9 tissue homogenate. Dose levels (µg/plate) up to 4000 were assessed for WP2 uvrA and TA98, 500 for TA1535, 250 for TA1537 and 62.5 for TA100.

[2] = system: Salmonella typhimurium (TA1535, TA1537, TA98 and TA100); assay type: cell-based
Procedure: as §1

[3] = system: N. gonorrhoeae; experiment: In vitro selection of mutants with reduced susceptibility; assay type: cell-based, Neisseria gonorrhoeae
Procedure: N. gonorrhoeae strains were grown overnight on chocolate agar plates, as described above. […] Plates were incubated at 35 ± 2 °C in a humid 5% CO2–enriched atmosphere for 48–72 h.

[4] = TA98, without S9, 62.5 µg/plate
[5] = TA100, without S9, 15.6 µg/plate
[6] = TA100, without S9, 31.3 µg/plate
[7] = TA1535, without S9, 10 µg/plate
[8] = TA1535, without S9, 15.6 µg/plate
[9] = TA1535, without S9, 31.3 µg/plate
[10] = TA1535, without S9, 62.5 µg/plate
[11] = TA1535, without S9, 250 µg/plate
[12] = TA1537, without S9, 10 µg/plate
[13] = TA1537, without S9, 15.6 µg/plate
[14] = TA1537, without S9, 31.3 µg/plate
[15] = TA1537, without S9, 62.5 µg/plate

Cc1c(CN(C)C(=O)/C=C/c2cnc3c(c2)N[C@H](C)[C@H](OP(=O)([O-])[O-])C(=O)N3)oc2ccccc12.[Na+].[Na+] [Debio 1453 P]
Ames bacterial mutation assessment, Mean ([1]; with S9, 62.5 µg/plate): 32 | Colony count ([1]; with S9, 62.5 µg/plate): 33 and 34 and 28 | Ames bacterial mutation assessment, Mean ([1]; with S9, 250 µg/plate): 31 | Colony count ([1]; with S9, 250 µg/plate): 33 and 31 and 30 | Ames bacterial mutation assessment, Mean ([1]; with S9, 500 µg/plate): 34 | Colony count ([1]; with S9, 500 µg/plate): 34 and 36 and 31 | Ames bacterial mutation assessment, Mean ([1]; with S9, 1000 µg/plate): 28 | Colony count ([1]; with S9, 1000 µg/plate): 26 and 30 and 28 | Ames bacterial mutation assessment, Mean ([1]; with S9, 2000 µg/plate): 26 | Colony count ([1]; with S9, 2000 µg/plate): 27 and 26 and 25 | Ames bacterial mutation assessment, Mean ([1]; with S9, 4000 µg/plate): 25 | Colony count ([1]; with S9, 4000 µg/plate): 25 and 26 and 23 | Ames bacterial mutation assessment, Mean ([1]; without S9, 62.5 µg/plate): 32 | Colony count ([1]; without S9, 62.5 µg/plate): 31 and 30 and 36 | Ames bacterial mutation assessment, Mean ([1]; without S9, 250 µg/plate): 26 | Colony count ([1]; without S9, 250 µg/plate): 26 and 28 and 25 | Ames bacterial mutation assessment, Mean ([1]; without S9, 500 µg/plate): 25 | Colony count ([1]; without S9, 500 µg/plate): 21 and 26 and 27 | Ames bacterial mutation assessment, Mean ([1]; without S9, 1000 µg/plate): 24 | Colony count ([1]; without S9, 1000 µg/plate): 25 and 24 | Ames bacterial mutation assessment, Mean ([1]; without S9, 2000 µg/plate): 24 | Colony count ([1]; without S9, 2000 µg/plate): 21 and 25 | Ames bacterial mutation assessment, Mean ([1]; without S9, 4000 µg/plate): 22 | Colony count ([1]; without S9, 4000 µg/plate): 23 and 18 and 24 | Ames bacterial mutation assessment, Mean ([2]; TA98, with S9, 62.5 µg/plate): 34 | Colony count ([2]; TA98, with S9, 62.5 µg/plate): 35 and 36 and 30 | Ames bacterial mutation assessment, Mean ([2]; TA98, with S9, 250 µg/plate): 26 | Colony count ([2]; TA98, with S9, 250 µg/plate): 28 and 26 and 23 | Ames bacterial mutation assessment, Mean ([2]; TA98, with S9, 500 µg/plate): 12 | Colony count ([2]; TA98, with S9, 500 µg/plate): 14 and 12 and 11 | Ames bacterial mutation assessment, Mean [2, 4]: 32 | Colony count [2, 4]: 36 and 29 and 32 | Ames bacterial mutation assessment, Mean ([2]; TA98, without S9, 250 µg/plate): 22 | Colony count ([2]; TA98, without S9, 250 µg/plate): 24 and 21 and 20 | Ames bacterial mutation assessment, Mean ([2]; TA98, without S9, 500 µg/plate): 12 | Colony count ([2]; TA98, without S9, 500 µg/plate): 12 and 13 and 10 | Ames bacterial mutation assessment, Mean ([2]; TA100, with S9, 5 µg/plate): 141 | Colony count ([2]; TA100, with S9, 5 µg/plate): 143 and 140 and 141 | Ames bacterial mutation assessment, Mean ([2]; TA100, with S9, 10 µg/plate): 128 | Colony count ([2]; TA100, with S9, 10 µg/plate): 123 and 133 and 128 | Ames bacterial mutation assessment, Mean ([2]; TA100, with S9, 15.6 µg/plate): 60 | Colony count ([2]; TA100, with S9, 15.6 µg/plate): 57 and 59 and 64 | Ames bacterial mutation assessment, Mean ([2]; TA100, with S9, 31.3 µg/plate): 30 | Colony count ([2]; TA100, with S9, 31.3 µg/plate): 30 and 29 and 32 | Ames bacterial mutation assessment, Mean ([2]; TA100, without S9, 5 µg/plate): 146 | Colony count ([2]; TA100, without S9, 5 µg/plate): 146 and 143 and 149 | Ames bacterial mutation assessment, Mean ([2]; TA100, without S9, 10 µg/plate): 134 | Colony count ([2]; TA100, without S9, 10 µg/plate): 125 and 145 and 131 | Ames bacterial mutation assessment, Mean [2, 5]: 59 | Colony count [2, 5]: 66 and 54 and 58 | Ames bacterial mutation assessment, Mean [2, 6]: 33 | Colony count [2, 6]: 32 and 31 and 36 | Ames bacterial mutation assessment, Mean ([2]; TA1535, with S9, 10 µg/plate): 18 | Colony count ([2]; TA1535, with S9, 10 µg/plate): 19 and 16 | Ames bacterial mutation assessment, Mean ([2]; TA1535, with S9, 15.6 µg/plate): 15 | Colony count ([2]; TA1535, with S9, 15.6 µg/plate): 18 and 14 | Ames bacterial mutation assessment, Mean ([2]; TA1535, with S9, 31.3 µg/plate): 16 | Colony count ([2]; TA1535, with S9, 31.3 µg/plate): 17 and 16 and 14 | Ames bacterial mutation assessment, Mean ([2]; TA1535, with S9, 62.5 µg/plate): 14 | Colony count ([2]; TA1535, with S9, 62.5 µg/plate): 15 and 12 and 16 | Ames bacterial mutation assessment, Mean ([2]; TA1535, with S9, 250 µg/plate): 6 | Colony count ([2]; TA1535, with S9, 250 µg/plate): 5 and 7 | Ames bacterial mutation assessment, Mean ([2]; TA1535, with S9, 500 µg/plate): 5 | Colony count ([2]; TA1535, with S9, 500 µg/plate): 6 and 5 | Ames bacterial mutation assessment, Mean [2, 7]: 19 | Colony count [2, 7]: 18 and 21 | Ames bacterial mutation assessment, Mean [2, 8]: 17 | Colony count [2, 8]: 17 and 16 | Ames bacterial mutation assessment, Mean [2, 9]: 13 | Colony count [2, 9]: 14 and 13 | Ames bacterial mutation assessment, Mean [2, 10]: 11 | Colony count [2, 10]: 11 and 12 | Ames bacterial mutation assessment, Mean [2, 11]: 6 | Colony count [2, 11]: 6 and 8 and 4 | Ames bacterial mutation assessment, Mean ([2]; TA1535, without S9, 500 µg/plate): 4 | Ames bacterial mutation assessment, Mean ([2]; TA1537, with S9, 10 µg/plate): 17 | Colony count ([2]; TA1537, with S9, 10 µg/plate): 16 and 19 | Ames bacterial mutation assessment, Mean ([2]; TA1537, with S9, 15.6 µg/plate): 18 | Colony count ([2]; TA1537, with S9, 15.6 µg/plate): 19 and 16 and 18 | Ames bacterial mutation assessment, Mean ([2]; TA1537, with S9, 31.3 µg/plate): 10 | Colony count ([2]; TA1537, with S9, 31.3 µg/plate): 10 and 11 and 9 | Ames bacterial mutation assessment, Mean [2, 12]: 19 | Colony count [2, 12]: 17 and 20 and 19 | Ames bacterial mutation assessment, Mean [2, 13]: 18 | Colony count [2, 13]: 19 and 20 and 16 | Ames bacterial mutation assessment, Mean [2, 14]: 15 | Colony count [2, 14]: 16 and 14 | Ames bacterial mutation assessment, Mean [2, 15]: 7 | Colony count [2, 15]: 8 and 6 | Ames assay result ([2]; presence and absence of S9, highest concentrations tested): non-mutagenic

Cc1c(CN(C)C(=O)/C=C/c2cnc3c(c2)N[C@H](C)[C@H](O)C(=O)N3)oc2ccccc12 [Debio 1453]
Mutants (colonies) ([3]; 6804, 4x MIC): 2 | Mutants (colonies) ([3]; 6804, 8x MIC): 0 | Mutants (colonies) ([3]; 6804, 16x MIC): 0 | Mutants (colonies) ([3]; 6926, 4x MIC): 1 | Mutants (colonies) ([3]; 6926, 8x MIC): 0 | Mutants (colonies) ([3]; 6926, 16x MIC): 0 | Mutants (colonies) ([3]; ATCC 700825, 16x MIC): 0 | Mutants (colonies) ([3]; WHO Z, 4x MIC): 1 | Mutants (colonies) ([3]; WHO Z, 8x MIC): 0 | Mutants (colonies) ([3]; WHO Z, 16x MIC): 0
